# Measurements from US9757408B2 (Hayashibara Co., Ltd., priority 2010, dated 2017).
# Read-outs that look alike come from different tables or passages of the source. Marks after values point to notes of the source that are not given here.
# How the values were obtained:
# [1] = mouse, in vivo
# Description: (§3) The eight mice in each five groups were sensitized (may be simply called “sensitization”, hereinafter) with picryl chloride (Tokyo Chemical Industry Co., Ltd., Tokyo, Japan) in such a manner of dropping a solution, which had been dissolved in a mixture solution of ethanol and acetone in a volume ratio of 4:1 at a concentration of 5%, on the shaved abdominal skin of the mice and on four footpads in a total volume of 150 μL/mouse, and spreading the solution over the abdominal skin and the foot pads by using a micropipette similarly as above.
# (§4) Throughout the test period, the mice were weighed once a week. The judgement of the conditions of skin inflammation was conducted twice a week every Tuesday and Friday from the 3rd induction for the degrees of four items of red flare/bleeding, edema (swelling of earflap), chafing/loss of tissue, and the formation of scar tissue/drying, and scored based on the criterion of four grades shown in Table 17; “0” (symptomless), “1” (mild), “2” (moderate), and “3” (severe). The total scores of each evaluation items for each group were averaged for use as a skin score.
# [2] = system: IL-6 in serum of mice administered with LPS; assay: Serum IL-6 in LPS-administered mice, oral administration (Experiment 11); assay type: in vivo, BALB/c mice; settings: LPS 18 mg/kg i.p., serum 90 min after LPS
# Description: The seven mice in another one group were orally administered through a gastric tube with 3′-glucosyl-adenosine N1-oxide, which had been dissolved in PBS, at a dose of 200 mg/kg body weight in a liquid volume of 0.2 mL/head (Experiment group 4). The seven mice in the remaining one group were orally administered through a gastric tube with PBS in a liquid volume of 0.2 mL/head (Experiment group 1). All the mice were intraperitoneally administered with an LPS specimen derived from E. coli (055:B5), commercialized by Sigma-Aldrich Corporation, St. Louis, Mo. USA, which had been dissolved in PBS, at a dose of 18 mg/kg body weight (Experiment groups 1 to 4). For each group, the mice were collected blood from their tail veins at 90 min after administering LPS, followed by assaying the concentrations of TNF-α, IL-6, and IL-10 contained in serum by the same method as in […].
# [3] = system: mouse intraperitoneal macrophages; assay: Cell viability of mouse intraperitoneal macrophages, AlamarBlue (Experiment 2); assay type: cell-based; settings: LPS 2 μg/mL, IFN-γ 10 IU/mL, control = 100%
# [4] = system: IL-10 in serum of mice administered with LPS; assay: Serum IL-10 in LPS-administered mice, ANO i.v. (Experiment 7); assay type: in vivo, BALB/c mice; settings: LPS 18 mg/kg i.p., serum two hours after LPS
# Description: (§1) More specifically, 18 BALB/c female mice, 9-week-old, commercialized by Japan Charles River, Tokyo, Japan, were randomly divided into three groups, six heads each. An LPS specimen derived from E. coli (055:B5), commercialized by Sigma-Aldrich Corporation, St. Louis, Mo. USA, was dissolved in physiological saline and intraperitoneally administered to all the 6 mice in respective three groups at a dose of 18 mg/kg body weight of LPS (Experiment groups 1 to 3). […] To the six mice of the remaining one group was intravenously administered PBS in a liquid volume of 0.2 mL/head simultaneously with the administration of LPS (Experiment group 1).
# (§2) For the mice in each group, they were collected blood at two hours after the LPS administration, followed by assaying the level of TNF-α, IL-6, IL-10, and IL-12 in each serum and averaging the data for each group. For the assay of the level of TNF-α, the same ELISA as in Experiment 2 was used and for the assay of the level of IL-6, the same ELISA as in Experiment 3 was used. […]
# [5] = physchem; settings: aqueous buffer
# [6] = system: IL-12 in serum of mice administered with LPS; assay: Serum IL-12 in LPS-administered mice, ANO i.v. (Experiment 7); assay type: in vivo, BALB/c mice; settings: LPS 18 mg/kg i.p., serum two hours after LPS
# Description: as §1, §2
# [7] = system: NHDF cells; assay: Cell survival rate of NHDF cells after hydrogen peroxide oxidant stress (Experiment 18); assay type: cell-based, human
# Description: To the wells, which had not been treated with hydrogen peroxide, was added 100 μL/well of Hanks' solution. […] Thereafter, the supernatant in each well was removed by sucking, and “CELL COUNTING KIT-8”, a product name of a reagent solution for counting viable cells, commercialized by Dojindo Molecular Technologies, Inc., Kumamoto, Japan, which had been diluted with D-MEM medium supplemented with 10% FCS by 20-times, was added to the wells in an amount of 100 μL/well, followed by incubating the cells in a 5% v/v CO2 incubator at 37° C. for two hours. Finally, the microplates were measured for absorbance at a wavelength of 450 nm on a plate reader. For each well, a relative absorption value was determined when the absorbance of a well of NHDF cells, which had been cultured by the addition of only medium, was regarded as 100, and it is expressed as a cell survival rate (%) in Table 21.
# [8] = system: IL-6 in serum of mice administered with LPS; assay: Serum IL-6 in LPS-administered mice, ANO i.v. (Experiment 7); assay type: in vivo, BALB/c mice; settings: LPS 18 mg/kg i.p., serum two hours after LPS
# Description: as §1, §2
# [9] = system: mice with bacterial shock induced by LPS; assay: LPS bacterial shock mice, survival, ANO i.v. one hour after LPS (Experiment 8); assay type: in vivo, BALB/c mice; settings: LPS 18 mg/kg i.p., ANO 135 mg/kg i.v. at one hour after LPS
# Description: An LPS specimen derived from E. coli ([…]), commercialized by Sigma-Aldrich Corporation, St. Louis, Mo. USA, was dissolved in PBS and intraperitoneally administered to all the seven mice in each group at a dose of 18 mg/kg body weight of LPS. […] For each group, the survival number of mice was confirmed up to 7 to 27 hours after administering LPS and determined the survival rate (%) of mice in each group.
# [10] = Body weight of picryl chloride-sensitized mice applied with gels (Experiment 16); settings: picryl chloride-sensitized NC/Nga mice, throughout the test period
# Description: as §3, §4
smiles,measurement,setting,value
"Nc1ncnc2c1ncn2[C@@H]1O[C@H](CO)[C@@H](O)[C@H]1O [AN, adenosine]",body weight of mice applied with the gel,[1],reduction of increasing rate of their body weights
"Nc1c2ncn([C@@H]3O[C@H](CO)[C@@H](O)[C@H]3O)c2nc[n+]1[O-] [ANO, adenosine N1-oxide]",Amount of IL-6,[2]; oral 100 mg/kg,17.5 ng/mL
same,Amount of IL-6,[2]; oral 200 mg/kg,16.0* ng/mL
same,Cell viability,[3]; ANO 0.006 μM,100%
same,Cell viability,[3]; ANO 0.031 μM,100%
same,Cell viability,[3]; ANO 0.063 μM,100%
same,Cell viability,[3]; ANO 0.313 μM,100%
same,IL-10 Concentration,[4]; ANO 68 mg/kg i.v.,14.1 ng/mL
same,IL-10 Concentration,[4]; ANO 135 mg/kg i.v.,19.3 ng/mL
same,solubility,[5],~20 mg/mL
same,IL-12 Concentration,[6]; ANO 68 mg/kg i.v.,136** pg/mL
same,IL-12 Concentration,[6]; ANO 135 mg/kg i.v.,105** pg/mL
same,Cell survival rate,"[7]; addition of hydrogen peroxide: No, 3.12 μM",100%
same,Cell survival rate,"[7]; addition of hydrogen peroxide: No, 6.25 μM",100%
same,Cell survival rate,"[7]; addition of hydrogen peroxide: No, 12.5 μM",100%
same,Cell survival rate,"[7]; addition of hydrogen peroxide: No, 25.0 μM",100%
same,Cell survival rate,"[7]; addition of hydrogen peroxide: Yes, 3.1 μM",35%
same,Cell survival rate,"[7]; addition of hydrogen peroxide: Yes, 6.3 μM",81%
same,Cell survival rate,"[7]; addition of hydrogen peroxide: Yes, 12.5 μM",83%
same,Cell survival rate,"[7]; addition of hydrogen peroxide: Yes, 25.0 μM",89%
same,influence on the cell survival rate without hydrogen peroxide,[7]; concentrations used in this experiment (Experiment groups 7 to 10),No influence
same,Cell survival rate,"[7]; hydrogen peroxide 200 μM, then ANO 25 μM for 24 hours, medium only = 100",89%
same,IL-6 Concentration,[8]; ANO 68 mg/kg i.v.,59.1 ng/mL
same,IL-6 Concentration,[8]; ANO 135 mg/kg i.v.,46.3* ng/mL
same,"Survival rate (%) of mice, 7 Hours",[9]; 7 hours,100%
same,"Survival rate (%) of mice, 22 Hours",[9]; 22 hours,86%
same,"Survival rate (%) of mice, 27 Hours",[9]; 27 hours,57%
"OC[C@H]1O[C@@H](n2cnc3c(O)ncnc32)[C@H](O)[C@@H]1O [IN, inosine]",body weight of mice applied with the gel,[10],reduction of increasing rate of their body weights
